Publication PMC6517080 (Chembiochem : a European journal of chemical biology, 2018)

Molecular target: antithrombin (AT) (Homo sapiens, UniProt P01008)
Test: ITC
Assay type: binding

Chain of antithrombin (AT) (P01008 33-464): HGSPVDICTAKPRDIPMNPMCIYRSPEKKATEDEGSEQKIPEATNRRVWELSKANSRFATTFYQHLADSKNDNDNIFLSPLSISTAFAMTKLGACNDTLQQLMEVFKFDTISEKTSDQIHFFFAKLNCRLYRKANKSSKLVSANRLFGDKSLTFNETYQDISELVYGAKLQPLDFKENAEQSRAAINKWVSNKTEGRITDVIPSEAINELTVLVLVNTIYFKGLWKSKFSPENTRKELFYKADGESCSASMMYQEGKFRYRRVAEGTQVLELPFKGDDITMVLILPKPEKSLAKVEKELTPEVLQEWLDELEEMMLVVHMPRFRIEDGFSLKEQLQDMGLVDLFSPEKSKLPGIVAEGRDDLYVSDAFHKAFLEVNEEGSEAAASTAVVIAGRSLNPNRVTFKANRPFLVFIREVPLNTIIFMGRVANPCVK

Structure (SMILES) | Kd [µM]
O=C(O)[C@H]1O[C@@H](Oc2ccc([N+](=O)[O-])cc2)[C@H](O)[C@@H](O)[C@@H]1O[C@H]1O[C@H](COS(=O)(=O)O)[C@@H](O[C@@H]2O[C@@H](C(=O)O)[C@@H](O[C@H]3O[C@H](COS(=O)(=O)O)[C@@H](O[C@@H]4O[C@H](C(=O)O)[C@@H](O[C@H]5O[C@H](COS(=O)(=O)O)[C@@H](O)[C@H](O)[C@H]5NS(=O)(=O)O)[C@H](O)[C@H]4O)[C@H](OS(=O)(=O)O)[C@H]3NS(=O)(=O)O)[C@H](O)[C@H]2OS(=O)(=O)O)[C@H](O)[C@H]1NS(=O)(=O)O [hexa-4] | 0.551
O=C(O)[C@H]1O[C@@H](Oc2ccc([N+](=O)[O-])cc2)[C@H](O)[C@@H](O)[C@@H]1O[C@H]1O[C@H](COS(=O)(=O)O)[C@@H](O[C@@H]2O[C@@H](C(=O)O)[C@@H](O[C@H]3O[C@H](COS(=O)(=O)O)[C@@H](O[C@@H]4O[C@H](C(=O)O)[C@@H](O[C@H]5O[C@H](COS(=O)(=O)O)[C@@H](O)[C@H](O)[C@H]5NS(=O)(=O)O)[C@H](O)[C@H]4O)[C@H](OS(=O)(=O)O)[C@H]3NS(=O)(=O)O)[C@H](O)[C@H]2O)[C@H](O)[C@H]1NS(=O)(=O)O [hexa-8] | 1.29
